Measured values: US20250091989A1, “SMALL MOLECULE PROTEIN SYNTHESIS MODULATORS” (Interdict Bio, Inc., priority 2023, published 2025)

Experiments:
NCI-H1915 = experiment: Cell viability (CellTiter-Fluor), NCI-H1915; type: cell-based; conditions: NCI-H1915, 24-72 hrs
Experimental: (§1) Count and dispense 2,000-10,000 cells per well (100 μL volume) in black 96-well tissue culture microplate and let cells adhere overnight. Add compound dissolved in 100% DMSO to each well as needed and incubate cells in standard culture conditions for 24-72 hrs. Final DMSO concentration in each well should be 0.1-0.5%. At the desired time point, gently aspirate compound containing media and replace with PBS to wash. Repeat wash step for 2 total washes. Remove PBS and add 100 μL CellTiter-Fluor reagent (Promega) reagent to each well. Seal plate and incubate 1 hr at room temperature with orbital shaking. Analyze fluorescence using plate reader to quantify viable cells compared with vehicle (DMSO) control.

MCF7 = experiment: Cell viability (CellTiter-Fluor), MCF7; type: cell-based; conditions: Homo sapiens, MCF7, 24-72 hrs
Experimental: as §1

HEK 293T = experiment: Cell viability (CellTiter-Fluor), HEK 293T; type: cell-based; conditions: Homo sapiens, 24-72 hrs
Experimental: as §1

LS411N = experiment: Cell viability (CellTiter-Fluor), LS411N; type: cell-based; conditions: Homo sapiens, LS-411N, 24-72 hrs
Experimental: as §1

HPAF-II = experiment: Cell viability (CellTiter-Fluor), HPAF-II; type: cell-based; conditions: Homo sapiens, 24-72 hrs
Experimental: as §1

KRAS G12D = experiment: In vitro transcription-translation (IVTT) reporter assay, KRAS G12D test sequence; type: biochemical; conditions: HeLa S3 lysate, sfGFP/mCherry ratio, 2 hrs at 30° C.
How it was run: (§2)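 Coupled transcription-translation in HeLa S3 lysate with reporter plasmids encoding mCherry-P2A-3×FLAG-TEST-sfGFP behind an EMCV IRES. Compounds were half-log titrated (30 μM-0.1 μM in DMSO dilution plate) into master mix, then DNA was added. Reactions ran 2 hrs at 30° C, were PBS-quenched and read for fluorescence.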

ALK = experiment: In vitro transcription-translation (IVTT) reporter assay, ALK test sequence; type: biochemical; conditions: HeLa S3 lysate, sfGFP/mCherry ratio, 2 hrs at 30° C.
How it was run: as §2

KLE = experiment: Cell viability (CellTiter-Fluor), KLE; type: cell-based; conditions: Homo sapiens, 24-72 hrs
Experimental: as §1

T47D = experiment: Cell viability (CellTiter-Fluor), T47D; type: cell-based; conditions: Homo sapiens, 24-72 hrs
Experimental: as §1

HCC38 = experiment: Cell viability (CellTiter-Fluor), HCC38; type: cell-based; conditions: Homo sapiens, HCC38, 24-72 hrs
Experimental: as §1

KATO-III = experiment: Cell viability (CellTiter-Fluor), KATO-III; type: cell-based; conditions: Homo sapiens, 24-72 hrs
Experimental: as §1

MYC = experiment: In vitro transcription-translation (IVTT) reporter assay, MYC test sequence; type: biochemical; conditions: HeLa S3 lysate, sfGFP/mCherry ratio, 2 hrs at 30° C.
How it was run: as §2

MS751 = experiment: Cell viability (CellTiter-Fluor), MS751; type: cell-based; conditions: MS751, 24-72 hrs
Experimental: as §1

BCL-2 = experiment: In vitro transcription-translation (IVTT) reporter assay, BCL-2 test sequence; type: biochemical; conditions: HeLa S3 lysate, sfGFP/mCherry ratio, 2 hrs at 30° C.
Description: (§3) All reporter constructs have been cloned into the pT7CFE1-CHis plasmid (ThermoFisher #88860) using Gibson assembly procedures (NEB #E2611L). The parental pT7CFE1-CHis plasmid contains an EMCV IRES at the 5′UTR for translation initiation, a multiple-cloning site (MCS) for gene insertion, an optional C-terminal His-epitope tag, and polyA sequence in the 3′UTR to regulate mRNA stability. All reporters are designed to be inserted at the MCS to include a red fluorescent protein (mCherry), P2A self-cleaving peptide which releases the preceding mCherry protein product, and a fusion open reading frame containing a 3×FLAG epitope, a peptide sequence of interest (TEST), and green fluorescent protein (sfGFP).
(§4) Construct Plasmid Preparation: All plasmids are isolated from MACH1 cells (ThermoFisher) grown overnight in ampicillin-containing luria broth, and purified using ZymoPure Express Plasmid Midiprep Kit (Zymo Research). Constructs are sequenced verified and diluted to a working concentration of 110 ng/μL.
(§5) HeLa S3 Lysate Preparation: HeLa S3 cell pellets are acquired from Ipracell/Ipratech (Belgium) and shipped as 4 mL frozen cell pellets on dry ice for storage at −80° C. until use. The procedure for lysate preparation is as follows. Prepare 1× Lysis Buffer, cold and stored on ice:
(§6) Each preparation takes 8 cell pellets (4 ml packed volume each, approximately 1.0×10^9 cells per pellet). Thaw cell pellets from −80° C. on ice for 90 mins. Lay pellets horizontally on top of the ice and rotate every 30 mins to ensure even thawing. Once thawed, add 4 mL of cold lysis buffer to each pellet, and using a serological pipet, gently pipet up and down to break up clumps. Incubate resuspended cells in ice for an additional 30 mins (plunged into ice). During 30 min incubation, rinse and RNase-zap (Ambion) glass dounces (use loose pestle “A”), gently dry and place on ice until needed. Prepare RNase-free Eppendorf tubes for spinning and for batch storage. Add batch labels to 1.5-1.7 mL RNase-free microcentrifuge tubes (labeling scheme below). Each batch will have an extra 1.5-1.7 mL RNase-free microcentrifuge tube for 40 μL of lysate, label the top of this tube (labeling scheme below). After 30 min incubation, transfer all 8 mL of cell pellet to dounce. Cell lysis is complete after douncing 100 times. Aliquot cell lysis into 1.5-1.7 mL temporary-microcentrifuge tubes. Place tubes in centrifuge with “fins” out, and spin at 1,200 xg for 5 mins. After the first spin use a 1 mL pipet to resuspend each tube and repeat spin. This acts as an additional lysis step, is more vigorous and increases lysate yield. During second spin get liquid N2 and a fresh conical tube on ice.
(§7) After spin is complete, transfer supernatant (lysate) from microcentrifuge tubes into the 50 mL conical tube and keep on ice. Repeat steps 10-14 for all other cell pellets until completed. Once all cell lysate has been transferred to the 50 mL conical tube pipet to mix so the solution is homogenous. Transfer 1 mL of lysate into batch-labeled microcentrifuge tubes and flash freeze in liquid nitrogen. Be sure to pipet up and down to mix throughout transfer step. Place all tubes in the […] for long-term storage.
(§8) In vitro transcription-translation assay setup: Each assay includes a master mix containing lysate and shared components, a 96-well plate containing compound titrations for testing, a 96-well DNA plate with reporter constructs to be tested, 96-well skirted PCR plates, and 96-well flat-bottom, black, fluorescent assay plates. […]

MCL-1 = experiment: In vitro transcription-translation (IVTT) reporter assay, MCL-1 test sequence; type: biochemical; conditions: HeLa S3 lysate, sfGFP/mCherry ratio, 2 hrs at 30° C.
Description: as §3, §4, §5, §6, §7, §8

CCND1 = experiment: In vitro transcription-translation (IVTT) reporter assay, CCND1 test sequence; type: biochemical; conditions: HeLa S3 lysate, sfGFP/mCherry ratio, 2 hrs at 30° C.
Description: as §3, §4, §5, §6, §7, §8

HEPG2 = experiment: Cell viability (CellTiter-Fluor), HEPG2; type: cell-based; conditions: Homo sapiens, HEPG2, 24-72 hrs
Experimental: as §1

Structure (SMILES)	IC50 (NCI-H1915) [µM]	IC50 (MCF7) [µM]	IC50 (HEK 293T) [µM]	IC50 (LS411N) [µM]	IC50 (HPAF-II) [µM]	IC50 (KRAS G12D) [µM]	IC50 (ALK) [µM]	IC50 (KLE) [µM]	IC50 (T47D) [µM]	IC50 (HCC38) [µM]	IC50 (KATO-III) [µM]	IC50 (MYC) [µM]	IC50 (MS751) [µM]	IC50 (BCL-2) [µM]	IC50 (MCL-1) [µM]	IC50 (CCND1) [µM]	IC50 (HEPG2) [µM]
COc1ccc(C[C@H]2NC[C@H](O)[C@H]2OC(=O)CC2CC(F)(F)C2)cc1 [V187043, (2R,3S,4S)-4-hydroxy-2-[(4-methoxyphenyl)methyl]pyrrolidin-3-yl 2-(3,3-difluorocyclobutyl)acetate; trifluoroacetic acid]	0.25 to 1	< 0.25	< 0.25	< 0.25	0.25 to 1	< 10	< 10	< 0.25	< 0.25	< 0.25	0.25 to 1	< 10	< 0.25				
CC(=O)O[C@@H]1[C@@H](O)CN[C@@H]1Cc1ccc(-c2cn(-c3ccc(Cl)cc3)nn2)cc1 [V187839]												< 10		< 10	< 10	< 10	
CC(=O)O[C@@H]1[C@@H](O)CN[C@@H]1Cc1ccc(-c2cn(C)nn2)cc1 [V187748]												< 10		< 10	< 10	< 10	
COc1ccc(CC2NCC(O)C2OC(=O)CC2CC2(F)F)cc1 [V187061, 2R,3S,4S)-4-hydroxy-2-[(4-methoxyphenyl)methyl]pyrrolidin-3-yl 2-(2,2-difluorocyclopropyl)acetate]	0.25 to 1	0.25 to 1	< 0.25	< 0.25	0.25 to 1	< 10	< 10	0.25 to 1	0.25 to 1	0.25 to 1	1 to 4	< 10	< 0.25				
COc1ccc(C[C@H]2NC[C@H](O)[C@H]2OC(C)=O)cc1I [V188005]												> 30		> 30	> 30	> 30	
COc1ccc(C[C@H]2NC[C@H](O)[C@H]2OC(C)=O)cc1Br [V187263]												> 30		20 to 30	20 to 30	20 to 30	
CC(=O)O[C@@H]1[C@@H](O)CN[C@@H]1Cc1ccc(-c2nnn(C)c2Cl)cc1 [V187855]												< 10		< 10	< 10	< 10	
CC(=O)O[C@@H]1[C@@H](O)CN[C@@H]1Cc1ccc(-c2cn(-c3ccc(C(F)(F)F)cc3)nn2)cc1 [V187840]												< 10		< 10	< 10	< 10	
CC(=O)O[C@@H]1[C@@H](O)CN[C@@H]1Cc1ccc(-c2nnn(Cc3ccccc3)c2Cl)cc1 [V187856]												< 10		< 10	< 10	< 10	
COc1ccc(C[C@H]2NC[C@H](O)[C@H]2OC(=O)C[C@@H]2CCNC2)cc1 [V187690]	≥ 4	0.25 to 1	0.25 to 1	0.25 to 1	≥ 4	< 10	< 10	1 to 4	1 to 4	1 to 4	1 to 4	< 10	0.25 to 1	< 10	< 10	< 10	0.25 to 1
COc1ccc(C[C@H]2NC[C@H](O)[C@H]2OC(=O)CC(C)C)cc1 [V187035, (2R,3S,4S)-4-hydroxy-2-[(4-methoxyphenyl)methyl]pyrrolidin-3-yl 3-methylbutanoate]						< 10	< 10					< 10			< 10	< 10	
COc1ccc(C[C@H]2NC[C@H](O)[C@H]2OC(=O)Cc2cnc[nH]2)cc1 [V0109, (2R,3S,4S)-4-hydroxy-2-[(4-methoxyphenyl)methyl]pyrrolidin-3-yl 2-(3H-imidazol-4-yl)acetate]	0.25 to 1	0.25 to 1	< 0.25	0.25 to 1	0.25 to 1	< 10	< 10	0.25 to 1				< 10				< 10	
CC(=O)O[C@@H]1[C@@H](O)CN[C@@H]1Cc1ccc(-c2cn(C3CCOCC3)nn2)cc1 [V187838]												< 10		< 10	< 10	< 10	
CC(=O)O[C@@H]1[C@@H](O)CN[C@@H]1Cc1ccc(-c2nn[nH]c2Cl)cc1 [V187854]												< 10		< 10	< 10	< 10	
CC(=O)O[C@@H]1[C@@H](O)CN[C@@H]1Cc1ccc(-c2cn(-c3cccnc3)nn2)cc1 [V187751]												< 10		< 10	< 10	< 10	
CC(=O)O[C@@H]1[C@@H](O)CN[C@@H]1Cc1ccc(-c2cn(Cc3cn[nH]c3)nn2)cc1 [V187844]												< 10		< 10	< 10	< 10	
COc1ccc(C[C@H]2NC[C@H](O)[C@H]2OC(=O)Cc2cscn2)cc1 [V187049]	< 0.25	< 0.25	< 0.25	< 0.25	< 0.25	< 10	< 10	< 0.25	< 0.25	< 0.25	< 0.25	< 10	< 0.25			< 10	
COc1ccc(C[C@H]2NC[C@H](O)[C@H]2OC(=O)Cc2cc(Br)cs2)cc1 [V187070, (2R,3S,4S)-4-hydroxy-2-[(4-methoxyphenyl)methyl]pyrrolidin-3-yl 2-(4-bromothiophen-2-yl)acetate]						< 10						< 10			< 10	< 10	
